Measured values: US8481539B2, “Alkynylaryl compounds and salts thereof, pharmaceutical compositions comprising same, methods of preparing same and uses of same” (Bayer Intellectual Property GmbH, priority 2007, dated 2013)

Key:
human Trk-A = molecular target: T1, human Trk-A (Homo sapiens, UniProt P04629); experiment: TrkA HTRF Assay (assay 7); type: biochemical; settings: pIC50 class; 10 μM ATP; read-out: Enzymatic TrkA activity (assay 7)
T1 construct: C-terminal fragment of human Trk-A (amino acids G443-G796); GST; His; purchased Proqinase [Freiburg i.Brsg., Germany]; host or cells: insect cells [SF9]
T1 sequence (P04629 443-796): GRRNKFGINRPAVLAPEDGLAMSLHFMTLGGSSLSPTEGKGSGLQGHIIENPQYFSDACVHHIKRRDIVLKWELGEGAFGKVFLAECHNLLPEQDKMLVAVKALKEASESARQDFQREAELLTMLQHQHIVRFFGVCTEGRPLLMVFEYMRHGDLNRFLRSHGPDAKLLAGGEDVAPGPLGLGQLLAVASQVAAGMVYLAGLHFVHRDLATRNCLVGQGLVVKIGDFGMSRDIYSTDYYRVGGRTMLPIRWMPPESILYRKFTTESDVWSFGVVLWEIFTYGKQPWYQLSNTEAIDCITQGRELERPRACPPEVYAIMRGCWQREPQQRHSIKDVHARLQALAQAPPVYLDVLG
Excerpt: Trk-A inhibitory activity of compounds of the present invention was quantified employing the Trk-A HTRF assay as described in the following paragraphs.
As kinase, a GST-His fusion protein containing a C-terminal fragment of human Trk-A (amino acids G443-G796, expressed in insect cells [SF9] and purified by affinity chromatography, purchased from Proqinase [Freiburg i.Brsg., Germany] was used. As substrate for the kinase reaction the biotinylated poly-Glu, Tyr (4:1) copolymer (#61GT0BLA) from Cis Biointernational (Marcoule, France) was used. For the assay 50 nl of a 100 fold concentrated solution of the test compound in DMSO was pipetted into a black low volume 384 well microtiter plate (Greiner Bio-One, Frickenhausen, Germany), 2 μl of a solution of TrkA in aqueous assay buffer [8 mM MOPS/NaOH pH 7.0, 10 mM Mg(OAc)2, 1 mM dithiothreitol, 0.01% (v/v) NP-40 (Fluka), 0.2 mM EDTA] were added and the mixture was incubated for 15 min at 22° C. to allow pre-binding of the test compounds to the enzyme before the start of the kinase reaction. Then the kinase reaction was started by the addition of 3 μl of a solution of adenosine-tri-phosphate (ATP, 16.7 μM=>final conc. in the 5 μl assay volume is 10 μM) and substrate (2.27 μg/ml=>final conc. in the 5 μl assay volume is 1.36 μg/ml [˜30 nM]) in assay buffer and the resulting mixture was incubated for a reaction time of 60 min at 22° C. The concentration of Trk-A in the assay was adjusted depending of the activity of the enzyme lot and was chosen appropriate to have the assay in the linear range, typical enzyme concentrations were in the range of about 60 pg/μl (final conc. in the 5 μl assay volume). The reaction was stopped by the addition of 5 μl of a solution of HTRF detection reagents (200 nM streptavidine-XLent [Cis Biointernational] and 1.4 nM PT66-Eu-Chelate, an europium-chelate labelled anti-phospho-tyrosine antibody from Perkin Elmer) in an aqueous EDTA-solution (100 mM EDTA, 0.2% (w/v) bovine serum albumin in 50 mM HEPES/NaOH pH 7.5).
(§1) The resulting mixture was incubated 1 h at 22° C. to allow the binding of the biotinylated phosphorylated peptide to the streptavidine-XLent and the PT66-Eu-Chelate. Subsequently the amount of phosphorylated substrate was evaluated by measurement of the resonance energy transfer from the PT66-Eu-Chelate to the streptavidine-XLent. Therefore, the fluorescence emissions at 620 nm and 665 nm after excitation at 350 nm was measured in a HTRF reader, e.g. a Rubystar (BMG Labtechnologies, Offenburg, Germany) or a Viewlux (Perkin-Elmer). The ratio of the emissions at 665 nm and at […] was taken as the measure for the amount of phosphorylated substrate. The data were normalised (enzyme reaction without inhibitor=0% inhibition, all other assay components but no enzyme=100% inhibition).

human PDGFRβ = molecular target: T2, human PDGFRβ (Homo sapiens, UniProt P09619); experiment: PDGFRβ HTRF Assay (assay 6); type: biochemical; settings: pIC50 class; 10 μM ATP; read-out: Enzymatic PDGFRβ activity (assay 6)
T2 construct: C-terminal fragment of human PDGFRβ (amino acids 561-1106); GST; His; purchased Proqinase [Freiburg i.Brsg., Germany]; host or cells: insect cells [SF9]
T2 sequence (P09619 561-1106): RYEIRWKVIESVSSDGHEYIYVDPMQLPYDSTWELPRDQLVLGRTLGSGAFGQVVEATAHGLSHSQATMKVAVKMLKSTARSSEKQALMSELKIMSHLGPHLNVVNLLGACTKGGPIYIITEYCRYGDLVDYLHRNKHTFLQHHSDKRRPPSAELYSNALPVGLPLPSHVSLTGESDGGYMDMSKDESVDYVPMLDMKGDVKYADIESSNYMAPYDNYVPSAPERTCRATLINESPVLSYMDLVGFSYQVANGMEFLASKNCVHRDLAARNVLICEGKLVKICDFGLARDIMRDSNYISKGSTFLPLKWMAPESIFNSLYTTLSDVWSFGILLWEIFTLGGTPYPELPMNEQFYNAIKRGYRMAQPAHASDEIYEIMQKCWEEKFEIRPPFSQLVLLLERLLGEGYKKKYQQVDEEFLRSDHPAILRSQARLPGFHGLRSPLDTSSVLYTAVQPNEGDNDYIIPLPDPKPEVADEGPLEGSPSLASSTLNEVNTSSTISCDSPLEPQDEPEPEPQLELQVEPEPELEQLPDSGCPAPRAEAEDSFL
Excerpt: Assay 6: PDGFRβ HTRF Assay
PDGFRβ inhibitory activity of compounds of the present invention was quantified employing the PDGFRβ HTRF assay as described in the following paragraphs.
As kinase, a GST-His fusion protein containing a C-terminal fragment of human PDGFRβ (amino acids 561-1106, expressed in insect cells [SF9] and purified by affinity chromatography, purchased from Proqinase [Freiburg i.Brsg., Germany] was used. As substrate for the kinase reaction the biotinylated poly-Glu, Tyr (4:1) copolymer (#61GT0BLA) from Cis Biointernational (Marcoule, France) was used.
For the assay 50 nl of a 100 fold concentrated solution of the test compound in DMSO was pipetted into a black low volume 384 well microtiter plate (Greiner Bio-One, Frickenhausen, Germany), 2 μl of a solution of PDGFRβ in aqueous assay buffer [50 mM HEPES/NaOH pH 7.5, 10 mM MgCl2, 2.5 mM dithiothreitol, 0.01% (v/v) Triton-X100 (Sigma)] were added and the mixture was incubated for 15 min at 22° C. to allow pre-binding of the test compounds to the enzyme before the start of the kinase reaction. Then the kinase reaction was started by the addition of 3 μl of a solution of adenosine-tri-phosphate (ATP, 16.7 μM=>final conc. in the 5 μl assay volume is 10 μM) and substrate (2.27 μg/ml=>final conc. in the 5 μl assay volume is 1.36 μg/ml [˜30 nM]) in assay buffer and the resulting mixture was incubated for a reaction time of 25 min at 22° C. The concentration of PDGFRβ in the assay was adjusted depending of the activity of the enzyme lot and was chosen appropriate to have the assay in the linear range, typical enzyme concentrations were in the range of about 125 pg/μl (final conc. in the 5 μl assay volume). The reaction was stopped by the addition of 5 μl of a solution of HTRF detection reagents (200 nM streptavidine-XLent [Cis Biointernational] and 1.4 nM PT66-Eu-Chelate, an europium-chelate labelled anti-phospho-tyrosine antibody from Perkin Elmer) in an aqueous EDTA-solution (100 mM EDTA, 0.2% (w/v) bovine serum albumin in 50 mM HEPES/NaOH pH 7.5).
as §1, with “The data were normalised (enzyme reaction without inhibitor=0% inhibition, all other assay components but no enzyme=100% inhibition).” left out

IC50 (human Trk-A) [µM] | IC50 (human PDGFRβ) [µM] | SMILES
≥ 10 | < 1 | Cn1ncc2c(C#Cc3cccc(NC(=O)c4cccc(C(F)(F)F)c4)c3)cncc21 [Example 1.5, N-[3-(1-Methyl-1H-pyrazolo[3,4-c]pyridin-4-ylethynyl)-phenyl]-3-trifluoromethyl-benzamide]
≥ 10 | < 1 | Cc1ccc(NC(=O)c2cccc(C(F)(F)F)c2)cc1C#Cc1cncc2c1cnn2C [Example 1.6, N-[4-Methyl-3-(1-methyl-1H-pyrazolo[3,4-c]pyridin-4-ylethynyl)-phenyl]-3-trifluoromethyl-benzamide]
≥ 10 |  | Cn1ncc2c(C#Cc3cc(NC(=O)c4cccc(C(F)(F)F)c4)ccc3F)cncc21 [Example 1.9, N-[4-Fluoro-3-(1-methyl-1H-pyrazolo[3,4-c]pyridin-4-ylethynyl)-phenyl]-3-trifluoromethyl-benzamide]
≥ 10 | < 1 | Cn1ncc2c(C#Cc3cccc(NC(=O)Nc4ccccc4)c3)cncc21 [Example 2.1, 1-[3-(1-Methyl-1H-pyrazolo[3,4-c]pyridin-4-ylethynyl)-phenyl]-3-phenyl-urea]
≥ 10 | < 1 | Cc1ccc(NC(=O)Nc2cccc(C(F)(F)F)c2)cc1C#Cc1cncc2c1cnn2C [Example 2.4, 1-[4-Methyl-3-(1-methyl-1H-pyrazolo[3,4-c]pyridin-4-ylethynyl)-phenyl]-3-(3-trifluoromethyl-phenyl)-urea]
